Assays:
Type in all cases: physicochemical
[1] = Light resistance evaluation of compound: ink image samples on paper, xenon tester; design: key to Light resistance ΔE (color difference): ΔE = Euclidean distance of L*a*b* before vs after exposure; conditions: ink image sample on paper; xenon tester 10 hours, 0.39 W/m^2 at 340 nm, 40° C., relative humidity 60%
Protocol: Ink (1) of the present invention was prepared by mixing 5 parts of Compound (1) as the water-insoluble coloring compound of the present invention, 350 parts of toluene, 350 parts of ethyl acetate, and 300 parts of 2-butanone.
Inks (1), (2), (4), (8), (13), (15), (23), (28), (29), and (30) and Comparative Inks (1) and (2) were each applied onto paper for contrast ratio measurement by bar coating (Bar No. 10) and were air-dried overnight to produce image samples. Chromaticity values (L*, a*, b*) in the L*a*b* color system of each image sample were measured with a reflection densitometer SpectroLino (manufactured by Gretag Macbeth AG).
(§1) Each of the image samples produced in the chromaticity measurement was charged in a xenon tester (Atlas Ci4000, manufactured by Suga Test Instruments Co., Ltd.) and was subjected to exposure conditions (irradiance: 0.39 W/m^2 at 340 nm, temperature: 40° C., relative humidity: 60%) for 10 hours. The reflection densities of printed matters were measured before and after the test. The color difference (ΔE) was calculated from the initial chromaticity values a0*, b0*, L0* and the chromaticity values a*, b*, L after the exposure by the following expression: ΔE=√{square root over ((a*−a0*)^2+(b*−b0*)^2+(L*−L0*)^2)} [Math. 1] The evaluation criteria are as follows: • A: ΔE<3.50 • B: 3.50≦ΔE<5.00 • C: 5.00≦ΔE

[2] = Evaluation of light resistance of thermal transfer recording sheets, xenon tester; conditions: thermal transfer recording sheet containing the compound; xenon tester 50 hours, 0.39 W/m^2 at 340 nm, 40° C., relative humidity 60%
Protocol: Ink (14) of the present invention was prepared by gradually adding 5 parts of a polyvinyl butyral resin (Denka 3000-K, manufactured by Denki Kagaku Kogyo K.K.) to a solution of 13.5 parts of Compound (4), as the water-insoluble coloring compound of the present invention, in a mixture of 45 parts of methyl ethyl ketone and 45 parts of toluene with stirring.
Ink (14) was applied onto a polyethylene terephthalate film (Lumirror, manufactured by Toray Industries, Inc.) having a thickness of 4.5 μm so as to have a dried thickness of 1 μm and was dried to produce thermal transfer recording sheet (4).
as §1, with “the resulting color filters and” for “the image samples produced in”, “the thermal transfer recording sheets” for “the chromaticity measurement”, “for 50” for “for 10”, “b*, L*” for “b*, L”, “[Math. 2]” for “[Math. 1]”

[3] = Evaluation of light resistance of color filters, xenon tester; conditions: color filter containing the compound; xenon tester 50 hours, 0.39 W/m^2 at 340 nm, 40° C., relative humidity 60%
Protocol: Ink (11) of the present invention was prepared by mixing 12 parts of Compound (1) as the water-insoluble coloring compound of the present invention and 120 parts of cyclohexanone and dispersing the mixture with an attritor (manufactured by Mitsui Mining Co., Ltd.) for 1 hour.
Twenty-two parts of Ink (11) was slowly added to a solution of 6.7 parts of an acrylic copolymer composition (weight average molecular weight Mw: 10000) composed of, as a monomer ratio, 40% by mass of n-butyl methacrylate, 30% by mass of acrylic acid, and 30% by mass of hydroxyethyl methacrylate, 1.3 parts of dipentaerythritol pentaacrylate, and 0.4 parts of 2-benzyl-2-dimethylamino-1-(4-morpholinophenyl)-butanone (photopolymerization initiator) in 96 parts of cyclohexanone, followed by stirring at room temperature for 3 hours. The reaction solution was filtered through a filter of 1.5 μm pore size to yield color filter yellow resist composition (1) of the present invention.
Color filter yellow resist composition (1) was spin-coated on a glass substrate and was then dried at 90° C. for 3 min, and the entire surface was then exposed to light and post-cured at 180° C. to produce color filter (1).
as §1, with “the resulting color filters and” for “the image samples produced in”, “the thermal transfer recording sheets” for “the chromaticity measurement”, “for 50” for “for 10”, “b*, L*” for “b*, L”, “[Math. 2]” for “[Math. 1]”

Light resistance ΔE (color difference) [1] | Light resistance ΔE, evaluation grade [1] | Light resistance ΔE (color difference) [2] | Light resistance ΔE, evaluation grade [2] | Light resistance ΔE (color difference) [3] | Light resistance ΔE, evaluation grade [3] | SMILES
10.6 | C (C: 5.00≦ΔE) | 15.1 | C (C: 5.00≦ΔE) | 12.8 | C (C: 5.00≦ΔE) | Cc1c(/N=N/c2ccccc2)c(O)n(N)c(=O)c1C#N [Comparative Compound (1), reference compound]
3.64 | B (B: 3.50≦ΔE<5.00) | – | – | 2.99 | A (A: ΔE<3.50) | CCCCC(CC)CN(CC(CC)CCCC)C(=O)c1ccccc1/N=N/c1c(C)c(C#N)c(=O)n(N)c1O (stereo not drawn) [Compound (1)]
1.70 | A (A: ΔE<3.50) | 2.76 | A (A: ΔE<3.50) | – | – | CCCCC(CC)CN(CC(CC)CCCC)C(=O)c1cccc(/N=N/c2c(C)c(C#N)c(=O)n(N)c2O)c1 (stereo not drawn) [Compound (4)]
2.81 | A (A: ΔE<3.50) | – | – | 2.68 | A (A: ΔE<3.50) | CCCCC(CC)CN(CC(CC)CCCC)C(=O)c1ccc(/N=N/c2c(-c3ccccc3)c(C#N)c(=O)n(NC(=O)c3ccccc3)c2O)cc1 (stereo not drawn) [Compound (8)]
3.98 | B (B: 3.50≦ΔE<5.00) | 3.37 | A (A: ΔE<3.50) | – | – | CCCCC(CC)CN(CC(CC)CCCC)C(=O)c1cccc(/N=N/c2c(C)c(C#N)c(=O)n(N(C)C)c2O)c1 (stereo not drawn) [Compound (13)]
4.32 | B (B: 3.50≦ΔE<5.00) | – | – | 4.21 | B (B: 3.50≦ΔE<5.00) | CCCCC(CC)CN(CC(CC)CCCC)C(=O)c1cccc(/N=N/c2c(C)c(C#N)c(=O)n(NC(=O)C(CC)CCCC)c2O)c1 (stereo not drawn) [Compound (15)]
2.37 | A (A: ΔE<3.50) | 2.54 | A (A: ΔE<3.50) | – | – | CCCCC(CC)CN(CC(CC)CCCC)S(=O)(=O)c1ccc(/N=N/c2c(C)c(C#N)c(=O)n(N)c2O)cc1 (stereo not drawn) [Compound (23)]
1.64 | A (A: ΔE<3.50) | 2.32 | A (A: ΔE<3.50) | – | – | CCCCC(CC)CN(CC(CC)CCCC)C(=O)c1ccc(/N=N/c2c(C)c(C#N)c(=O)n(N3CCCCC3)c2O)cc1 (stereo not drawn) [Compound (28)]
3.77 | B (B: 3.50≦ΔE<5.00) | 2.56 | A (A: ΔE<3.50) | – | – | CCCCC(CC)CN(CC(CC)CCCC)S(=O)(=O)c1ccc(/N=N/c2c(C)c(C#N)c(=O)n(N(C)C(=O)C(C)(C)C)c2O)cc1 (stereo not drawn) [Compound (29)]
2.44 | A (A: ΔE<3.50) | 4.89 | B (B: 3.50≦ΔE<5.00) | – | – | CCCCC(CC)CN(CC(CC)CCCC)C(=O)c1ccc(/N=N/c2c(C)c(C#N)c(=O)n(N(CCCC)CCCC)c2O)cc1 (stereo not drawn) [Compound (30)]

— patent US9382426B2, “Water-insoluble coloring compound, ink, thermal transfer recording sheet, and color filter resist composition” (CANON KABUSHIKI KAISHA, priority 2012, dated 2016)
